In ChEMBL document CHEMBL1130420 (J Med Chem, 1997):

Columns and labels:
[1] = molecular target: T1, Estrogen receptor (Mus musculus) (UniProt O08537+P19785); assay: Uterine weight after 9 day treatment at 4.7 ug by oral gavage to ovariectomised mice with estrone; format: functional, tissue-based; settings: Uterus
[2] = molecular target: T1, Estrogen receptor (Mus musculus); assay: (§1) Uterine weight after 9 day treatment at 1.6 ug by oral gavage to ovariectomised mice with estrone; format: functional, tissue-based; settings: Uterus
[3] = molecular target: T1, Estrogen receptor (Mus musculus); assay: (§2) Uterine weight after 9 day treatment at 0.47 ug by oral gavage to ovariectomised mice with estrone; format: functional, tissue-based; settings: Uterus
[4] = molecular target: T1, Estrogen receptor (Mus musculus); assay: (§3) Uterine weight after 9 day treatment at 4.7 ug by oral gavage to ovariectomised mice without estrone; format: functional, tissue-based; settings: Uterus
[5] = molecular target: T1, Estrogen receptor (Mus musculus); assay: Uterine weight after 9 day treatment at 47 ug by oral gavage to ovariectomised mice with estrone; format: functional, tissue-based; settings: Uterus
[6] = molecular target: T1, Estrogen receptor (Mus musculus); assay: (§4) Uterine weight after 9 day treatment at 0.47 ug by oral gavage to ovariectomised mice without estrone; format: functional, tissue-based; settings: Uterus
[7] = molecular target: T1, Estrogen receptor (Mus musculus); assay: (§5) Uterine weight after 9 day treatment at 47 ug by oral gavage to ovariectomised mice without estrone; format: functional, tissue-based; settings: Uterus
Estrogen receptor [8] = molecular target: T2, Estrogen receptor (Homo sapiens, UniProt Q92731+P03372)
Description: Inhibition of estradiol binding to estrogen receptor in Human Breast cancer cytosol (3.3% ethanol)

Estrogen receptor [9] = molecular target: T2, Estrogen receptor; settings: t-47d
Description: Apparent binding affinity against estradiol-stimulated T-47D cell proliferation

Estrogen receptor [10] = molecular target: T2, Estrogen receptor; settings: t-47d; remark: listed apart in the source
Description: Inhibition of estradiol-stimulated T-47D cell proliferation.

[11] = molecular target: T1, Estrogen receptor (Mus musculus); assay: (§6) Uterine weight after 9 day treatment at 16 ug by oral gavage to ovariectomised mice with estrone; format: functional, tissue-based; settings: Uterus
Estrogen receptor [12] = molecular target: T2, Estrogen receptor; assay: Relative Binding Affinity for estrogen receptor in Human Breast cancer or normal uterine cytosol in 3.3%ethanol compared to estradiol; format: protein assay; settings: Uterus
[13] = molecular target: T1, Estrogen receptor (Mus musculus); assay: (§7) Uterine weight after 9 day treatment at 16 ug by oral gavage to ovariectomised mice without estrone; format: functional, tissue-based; settings: Uterus
[14] = molecular target: T1, Estrogen receptor (Mus musculus); assay: Uterine weight after 9 day treatment at 1.6 ug by oral gavage to ovariectomised mice without estrone; format: functional, tissue-based; settings: Uterus
[15] = molecular target: T1, Estrogen receptor (Mus musculus); assay: as §5; format: functional, tissue-based; settings: Uterus; remark: listed apart in the source
Estrogen receptor [16] = molecular target: T2, Estrogen receptor; assay: Stimulation of alkaline phosphatase activity in human endometrial Ishikawa cells with 1 nM E2 estradiol; format: functional, cell-based
[17] = molecular target: T1, Estrogen receptor (Mus musculus); assay: as §5; format: functional, tissue-based; settings: Uterus; remark: listed apart in the source
[18] = molecular target: T1, Estrogen receptor (Mus musculus); assay: as §4; format: functional, tissue-based; settings: Uterus; remark: listed apart in the source
[19] = molecular target: T1, Estrogen receptor (Mus musculus); assay: as §6; format: functional, tissue-based; settings: Uterus; remark: listed apart in the source
[20] = molecular target: T1, Estrogen receptor (Mus musculus); assay: as §7; format: functional, tissue-based; settings: Uterus; remark: listed apart in the source
[21] = molecular target: T1, Estrogen receptor (Mus musculus); assay: as §1; format: functional, tissue-based; settings: Uterus; remark: listed apart in the source
[22] = molecular target: T1, Estrogen receptor (Mus musculus); assay: as §3; format: functional, tissue-based; settings: Uterus; remark: listed apart in the source
[23] = molecular target: T1, Estrogen receptor (Mus musculus); assay: as §3; format: functional, tissue-based; settings: Uterus; remark: listed apart in the source
Estrogen receptor [24] = molecular target: T2, Estrogen receptor; remark: listed apart in the source
Description: Apparent inhibition constant for estrogen receptor in Human uterine cytosol in 3.3%ethanol

[25] = molecular target: T1, Estrogen receptor (Mus musculus); assay: as §2; format: functional, tissue-based; settings: Uterus; remark: listed apart in the source

T1 sequence (O08537 whole entry, looked up): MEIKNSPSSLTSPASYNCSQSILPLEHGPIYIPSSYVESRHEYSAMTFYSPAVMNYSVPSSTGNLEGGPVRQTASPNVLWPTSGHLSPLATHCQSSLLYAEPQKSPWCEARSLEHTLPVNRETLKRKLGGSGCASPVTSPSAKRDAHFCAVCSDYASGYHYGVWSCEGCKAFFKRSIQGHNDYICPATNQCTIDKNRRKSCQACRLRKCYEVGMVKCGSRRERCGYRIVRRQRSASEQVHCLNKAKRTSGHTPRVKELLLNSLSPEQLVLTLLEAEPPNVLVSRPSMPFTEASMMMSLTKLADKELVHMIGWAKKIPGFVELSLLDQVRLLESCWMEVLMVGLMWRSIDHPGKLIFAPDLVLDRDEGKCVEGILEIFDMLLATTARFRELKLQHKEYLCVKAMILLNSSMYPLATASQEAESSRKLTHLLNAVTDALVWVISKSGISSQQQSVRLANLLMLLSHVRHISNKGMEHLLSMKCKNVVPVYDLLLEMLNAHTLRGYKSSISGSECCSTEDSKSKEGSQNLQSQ
T1 sequence (P19785 whole entry, looked up): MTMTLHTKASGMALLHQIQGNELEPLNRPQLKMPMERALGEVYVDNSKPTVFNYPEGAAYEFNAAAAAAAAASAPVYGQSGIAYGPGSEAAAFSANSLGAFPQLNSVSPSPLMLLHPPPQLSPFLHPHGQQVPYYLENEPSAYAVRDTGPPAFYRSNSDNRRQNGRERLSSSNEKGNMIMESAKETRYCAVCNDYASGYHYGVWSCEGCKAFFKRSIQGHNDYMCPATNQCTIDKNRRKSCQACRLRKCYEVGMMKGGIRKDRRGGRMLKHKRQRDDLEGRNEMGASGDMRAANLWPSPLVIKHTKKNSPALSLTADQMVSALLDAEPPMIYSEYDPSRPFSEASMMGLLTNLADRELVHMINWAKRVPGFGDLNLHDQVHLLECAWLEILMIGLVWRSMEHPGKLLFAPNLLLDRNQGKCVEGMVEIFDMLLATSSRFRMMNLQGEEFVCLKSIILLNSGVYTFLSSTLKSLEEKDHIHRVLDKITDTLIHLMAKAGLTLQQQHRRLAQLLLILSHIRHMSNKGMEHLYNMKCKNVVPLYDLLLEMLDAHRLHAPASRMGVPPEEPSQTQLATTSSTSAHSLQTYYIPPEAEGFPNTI

Weight [1] [mg] | Weight [2] [mg] | Weight [3] [mg] | Weight [4] [mg] | Weight [5] [mg] | Weight [6] [mg] | Weight [7] [mg] | Ki (Estrogen receptor [8]) [nM] | Ki (Estrogen receptor [9]) [nM] | IC50 (Estrogen receptor [10]) [nM] | Weight [11] [mg] | Weight [13] [mg] | Weight [14] [mg] | Structure (SMILES) | further results
91.2 | 88.6 | 83.1 | 19.8 | 61.1 | 16.5 | 18 | > 270 | 4.22 | 36.2 | 75.7 | 15.7 | 17.2 | CC1=C(c2ccc(OC(=O)C(C)(C)C)cc2)[C@@H](c2ccc(OCCN3CCCCC3)cc2)Oc2cc(OC(=O)C(C)(C)C)ccc21 | RBA (Estrogen receptor [12]): < 0.04
 |  |  |  |  |  |  |  | 0.525 | 4.6 |  |  |  | Oc1ccc(C2=Cc3ccc(O)cc3OC2c2ccc(OCCN3CCCCC3)cc2)cc1 (stereo unspecified) | 
33.3 | 53.4 | 72.9 | 24.5 | 31.7 | 19 | 21.1 | 4.71 | 0.016 | 0.14 | 28.9 | 19.4 | 24.1 | CC1=C(c2ccc(OC(=O)C(C)(C)C)cc2)[C@H](c2ccc(OCCN3CCCCC3)cc2)Oc2cc(OC(=O)C(C)(C)C)ccc21 | Weight [15]: 28.1 mg; IC50 (Estrogen receptor [16]): 1.3 nM; Ki (Estrogen receptor [16]): 0.023 nM; Weight [17]: 25 mg; Weight [18]: 21 mg; Weight [19]: 29.2 mg; Weight [20]: 24 mg; Weight [21]: 53 mg; Weight [22]: 24.7 mg; Weight [23]: 35.3 mg; Ki (Estrogen receptor [24]): 11.14 nM; Weight [25]: 84 mg
